Results on 18 compounds are retold here after patent US20240390340A1 (INCYTE CORPORATION, priority 2023, published 2024).

Data set [1] deals with KRAS. In words: KRAS inhibition, assay not specified (at least one assay described herein). The conditions noted are these: Peak 1 versus Peak 2 of prep. LCMS; assay not stated.
The subject of data set [2] is Caco-2 cells. In words: Caco2 assay (Papp A-B). The class given is in vitro ADME. The settings on record: test compound 50 μM, 120 min, 37° C. The method, boiled down:
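Caco-2 monolayers grown 22–25 days on Transwells (TEER 300 Ω·cm^2) were dosed apically with 50 μM compound in HBSS; basolateral receiver held HBSS with 4% BSA. Incubation 120 min at 37° C, 5% CO2; donor and receiver samples quantified by LCMS and Papp A-B calculated from receiver-side cumulative flux slope.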

In data set [3] the target is KRAS G12D (Homo sapiens, UniProt P01116, G12D). In words: GDP-GTP exchange assay (bodipy-GDP/GppNHp, SOS1), KRAS G12D. It is filed as biochemical.
Data set [4] concerns the target KRAS G12V (Homo sapiens, UniProt P01116, G12V). Put plainly: GDP-GTP exchange assay (bodipy-GDP/GppNHp, SOS1), KRAS G12V. It is filed as biochemical.
[5] abbreviates: Table H, column G12D, for compounds isolated as several atropisomers/diastereoisomers the value for the most potent isomer is quoted, read-out: KRAS G12D exchange assay IC50.
[6] abbreviates: Table H, column G12V, for compounds isolated as several atropisomers/diastereoisomers the value for the most potent isomer is quoted, read-out: KRAS G12V exchange assay IC50.
Setting [7] is: bodipy-loaded KRAS G12D 2.5 nM, 4 h pre-incubation, value for the most potent isomer quoted for certain compounds, read-out: G12D (KRAS G12D exchange assay IC50).
The mark [8] stands for this setting: KRAS G12V mutant, value for the most potent isomer quoted for certain compounds, read-out: G12V (KRAS G12V exchange assay IC50).

Like-named read-outs stand apart in the source and are kept apart here.

Sequence of KRAS G12V (P01116 1-188 isoform P01116-2 G12V): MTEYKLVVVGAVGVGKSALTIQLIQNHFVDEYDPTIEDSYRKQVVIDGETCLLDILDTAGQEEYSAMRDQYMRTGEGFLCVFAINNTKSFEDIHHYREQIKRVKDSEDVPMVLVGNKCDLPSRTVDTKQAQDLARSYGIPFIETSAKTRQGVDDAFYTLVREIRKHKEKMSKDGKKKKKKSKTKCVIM
Sequence of KRAS G12D (P01116 1-188 isoform P01116-2 G12D): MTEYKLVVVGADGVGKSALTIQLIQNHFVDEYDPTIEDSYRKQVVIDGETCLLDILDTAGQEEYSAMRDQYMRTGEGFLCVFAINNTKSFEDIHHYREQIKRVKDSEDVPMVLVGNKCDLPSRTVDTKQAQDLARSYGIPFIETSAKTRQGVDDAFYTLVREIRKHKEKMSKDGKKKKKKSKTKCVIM

`COC[C@@H]1[C@@H](Oc2cc(OC)ncc2F)C[C@H](c2cc3c([C@@H](C)O)nc4c(F)c(-c5cccc(Cl)c5Cl)c(CCC#N)cc4c3n2[C@H]2[C@H]3CN[C@@H]2C3)N1C(=O)C1CC1` (single isomer, unassigned): the “potency of the separated diastereoisomer (atropisomer) in words” value (“potency of the separated diastereoisomer” for short) in data set [1] is reported as “potent”.

As for `C[C@@H](O)c1nc2c(F)c(-c3cccc(Cl)c3Cl)c(CCC#N)cc2c2c1cc([C@H]1[C@H](O)[C@H](Oc3ccccn3)CN1C(=O)C1CC1)n2[C@H]1[C@H]2CN[C@@H]1C2` (single isomer, unassigned), in data set [1], the “potency of the separated diastereoisomer” value was “potent”.

Regarding `C[C@@H](O)c1nc2c(F)c(-c3cccc(Cl)c3Cl)c(CCC#N)cc2c2c1cc([C@H]1[C@@H](F)[C@H](Oc3ccccn3)CN1C(=O)C1CC1)n2[C@H]1[C@H]2CN[C@@H]1C2` (single isomer, unassigned), the “potency of the separated diastereoisomer” value in data set [1] was “potent”.

For `COc1ncccc1O[C@H]1C[C@H](c2cc3c(C)nc4c(F)c(-c5cccc(Cl)c5Cl)c(CCC#N)cc4c3n2[C@H]2[C@H]3CN[C@@H]2C3)N(C(=O)C2CC2)C1` (single isomer, unassigned) [Example 1, Diastereomer 1 (Peak 1)], the “potency of the separated diastereoisomer” value in data set [1] is “potent”.

In the case of `COc1cc(O[C@H]2C[C@H](c3cc4c(C(C)O)nc5c(F)c(-c6cccc(Cl)c6Cl)c(CCC#N)cc5c4n3[C@H]3[C@H]4CN[C@@H]3C4)N(C(=O)C3CC3)C2)ccn1` (single isomer, unassigned) [Example 2, Diastereomer 1 (Peak 1)], in data set [1], the “potency of the separated diastereoisomer” value was “potent”.

With `Cc1nc2c(F)c(-c3cccc(Cl)c3Cl)c(CCC#N)cc2c2c1cc([C@H]1C[C@H](n3cc(C(C)(C)C)nn3)CN1C(=O)C1CC1)n2[C@H]1[C@H]2CN[C@@H]1C2` (single isomer, unassigned) [Example 4, Diastereomer 1 (Peak 1)], the “potency of the separated diastereoisomer” value in data set [1] is recorded as “potent”.

Regarding `CC(O)c1nc2c(F)c(-c3cccc(Cl)c3Cl)c(CCC#N)cc2c2c1cc([C@H]1C[C@H](OCc3ccc(F)cc3C#N)CN1C(=O)C1(C)CC1)n2[C@H]1[C@H]2CN[C@@H]1C2` (single isomer, unassigned) [Example 35, Diastereomer 1 (Peak 1)], the “potency of the separated diastereoisomer” value in data set [1] was “potent”.

As for `CCc1c(-c2ccccc2)nnn1[C@H]1C[C@H](c2cc3c(C)nc4c(F)c(-c5cccc(Cl)c5Cl)c(CCC#N)cc4c3n2[C@H]2[C@H]3CN[C@@H]2C3)N(C(=O)C2CC2)C1` [Example 70, 3-(1-((1R,4R,5S)-2-Azabicyclo[2.1.1]hexan-5-yl)-2-((2R,4S)-1-(cyclopropanecarbonyl)-4-(5-ethyl-4-phenyl-1H-1,2,3-triazol-1-yl)pyrrolidin-2-yl)-7-(2,3-dichlorophenyl)-6-fluoro-4-methyl-1H-pyrrolo[3,2-c]quinolin-8-yl)propanenitrile], in data set [2], the Caco-2 entry is recorded as “+ (a Caco-2 value of ≤0.5)”. Moreover, the IC50 in data set [3] (setting [5]) and in data set [4] (setting [6]) was no more than 100 nM in each case.

Take `Cc1nc2c(F)c(-c3cccc(Cl)c3Cl)c(CCC#N)cc2c2c1cc([C@H]1C[C@H](n3nncc3C3CCCC3)CN1C(=O)C1CC1)n2[C@H]1[C@H]2CN[C@@H]1C2` [Example 71, 3-(1-((1R,4R,5S)-2-Azabicyclo[2.1.1]hexan-5-yl)-2-((2R,4S)-4-(5-cyclopentyl-1H-1,2,3-triazol-1-yl)-1-(cyclopropanecarbonyl)pyrrolidin-2-yl)-7-(2,3-dichlorophenyl)-6-fluoro-4-methyl-1H-pyrrolo[3,2-c]quinolin-8-yl)propanenitrile]: the Caco-2 result in data set [2] is recorded as “+ (a Caco-2 value of ≤0.5)”. In addition, the concentration for half-maximal inhibition (IC50) in data set [3] (setting [5]) and in data set [4] (setting [6]) was no more than 100 nM in each case.

On to `Cc1nc2c(F)c(-c3cccc(Cl)c3Cl)c(CCC#N)cc2c2c1cc([C@H]1C[C@H](n3cc(F)cn3)CN1C(=O)C1CC1)n2[C@H]1[C@H]2CN[C@@H]1C2` [Example 72, 3-(1-((1R,4R,5S)-2-Azabicyclo[2.1.1]hexan-5-yl)-2-((2R,4S)-1-(cyclopropanecarbonyl)-4-(4-fluoro-1H-pyrazol-1-yl)pyrrolidin-2-yl)-7-(2,3-dichlorophenyl)-6-fluoro-4-methyl-1H-pyrrolo[3,2-c]quinolin-8-yl)propanenitrile], for which, in data set [2], the Caco-2 entry is “++ (a Caco-2 value of >0.5 but ≤1)”. Further, the IC50 in data set [3] (setting [5]) and in data set [4] (setting [6]) was no more than 100 nM throughout.

In the case of `Cc1nc2c(F)c(-c3cccc(Cl)c3Cl)c(CCC#N)cc2c2c1cc([C@H]1C[C@H](n3nccn3)CN1C(=O)C1CC1)n2[C@H]1[C@H]2CN[C@@H]1C2` [Example 74, 3-(1-((1R,4R,5S)-2-Azabicyclo[2.1.1]hexan-5-yl)-2-((2R,4S)-1-(cyclopropanecarbonyl)-4-(2H-1,2,3-triazol-2-yl)pyrrolidin-2-yl)-7-(2,3-dichlorophenyl)-6-fluoro-4-methyl-1H-pyrrolo[3,2-c]quinolin-8-yl)propanenitrile], the Caco-2 result in data set [2] is recorded as “++ (a Caco-2 value of >0.5 but ≤1)”. For the same compound, the IC50 in data set [3] (setting [5]) and in data set [4] (setting [6]) was no more than 100 nM throughout.

Take `Cc1nc2c(F)c(-c3cccc(Cl)c3Cl)c(CCC#N)cc2c2c1cc([C@H]1C[C@H](n3nnc(N4CCCC4)n3)CN1C(=O)C1CC1)n2[C@H]1[C@H]2CN[C@@H]1C2` [Example 75, 3-(1-((1R,4R,5S)-2-Azabicyclo[2.1.1]hexan-5-yl)-2-((2R,4S)-1-(cyclopropanecarbonyl)-4-(5-(pyrrolidin-1-yl)-2H-tetrazol-2-yl)pyrrolidin-2-yl)-7-(2,3-dichlorophenyl)-6-fluoro-4-methyl-1H-pyrrolo[3,2-c]quinolin-8-yl)propanenitrile]: the Caco-2 entry in data set [2] is given as “+ (a Caco-2 value of ≤0.5)”. Also, the half-maximal inhibitory concentration (IC50) in data set [3] (setting [5]) and in data set [4] (setting [6]) was no more than 100 nM throughout.

For the compound `COc1ccc(O[C@H]2C[C@H](c3cc4c([C@@H](C)O)nc5c(F)c(-c6cccc(Cl)c6Cl)c(CCC#N)cc5c4n3[C@H]3[C@H]4CN[C@@H]3C4)N(C(=O)C3CC3)C2)cn1` [Example 76, 3-(1-((1R,4R,5S)-2-Azabicyclo[2.1.1]hexan-5-yl)-2-((2R,4S)-1-(cyclopropanecarbonyl)-4-((6-methoxypyridin-3-yl)oxy)pyrrolidin-2-yl)-7-(2,3-dichlorophenyl)-6-fluoro-4-((R)-1-hydroxyethyl)-1H-pyrrolo[3,2-c]quinolin-8-yl)propanenitrile], the Caco-2 result in data set [2] was “++ (a Caco-2 value of >0.5 but ≤1)”. Further, the 50% inhibitory concentration (IC50) in data set [3] (setting [5]) and in data set [4] (setting [6]) was no more than 100 nM in each case.

Turning to `C[C@@H](O)c1nc2c(F)c(-c3cccc(Cl)c3Cl)c(CCC#N)cc2c2c1cc([C@H]1C[C@H](Oc3cc(C4CC4)on3)CN1C(=O)C1CC1)n2[C@H]1[C@H]2CN[C@@H]1C2` [Example 77, 3-(1-((1R,4R,5S)-2-Azabicyclo[2.1.1]hexan-5-yl)-2-((2R,4S)-1-(cyclopropanecarbonyl)-4-((5-cyclopropylisoxazol-3-yl)oxy)pyrrolidin-2-yl)-7-(2,3-dichlorophenyl)-6-fluoro-4-((R)-1-hydroxyethyl)-1H-pyrrolo[3,2-c]quinolin-8-yl)propanenitrile], in data set [2], the Caco-2 entry is “+ (a Caco-2 value of ≤0.5)”. Further, the concentration for half-maximal inhibition (IC50) in data set [3] (setting [5]) and in data set [4] (setting [6]) was no more than 100 nM in each case.

In the case of `Cc1nc2c(F)c(-c3cccc(Cl)c3Cl)c(CCC#N)cc2c2c1cc([C@H]1C[C@H](OC3(C)CCC3)CN1C(=O)C1CC1)n2[C@H]1[C@H]2CN[C@@H]1C2` [Example 78, 3-(1-((1R,4R,5S)-2-Azabicyclo[2.1.1]hexan-5-yl)-2-((2R,4S)-1-(cyclopropanecarbonyl)-4-(1-methylcyclobutoxy)pyrrolidin-2-yl)-7-(2,3-dichlorophenyl)-6-fluoro-4-methyl-1H-pyrrolo[3,2-c]quinolin-8-yl)propanenitrile], the Caco-2 entry in data set [2] is reported as “+++ (a Caco-2 value of >1)”. For the same compound, the IC50 in data set [3] (setting [5]) and in data set [4] (setting [6]) was no more than 100 nM in each case.

In the case of `Cc1nc2c(F)c(-c3cccc(Cl)c3Cl)c(CCC#N)cc2c2c1cc([C@H]1C[C@](C)(OCc3ccccc3)CN1C(=O)C1CC1)n2[C@H]1[C@H]2CN[C@@H]1C2` [Example 81, 3-(2-((2R,4S)-4-(Benzyloxy)-1-(cyclopropanecarbonyl)-4-methylpyrrolidin-2-yl)-1-((1R,4R,5S)-2-azabicyclo[2.1.1]hexan-5-yl)-7-(2,3-dichlorophenyl)-6-fluoro-4-methyl-1H-pyrrolo[3,2-c]quinolin-8-yl)propanenitrile], the Caco-2 result in data set [2] is on record as “+++ (a Caco-2 value of >1)”. Moreover, the IC50 in data set [3] (setting [7]) and in data set [4] (setting [8]) was no more than 100 nM each time.

On to `CC[C@@H]1[C@@H](Oc2cc(OC)ncc2F)C[C@H](c2cc3c([C@@H](C)O)nc4c(F)c(-c5cccc(Cl)c5Cl)c(CCC#N)cc4c3n2[C@H]2[C@H]3CN[C@@H]2C3)N1C(=O)C1CC1` [Example 82, 3-(1-((1R,4R,5S)-2-Azabicyclo[2.1.1]hexan-5-yl)-2-((2R,4S,5R)-1-(cyclopropanecarbonyl)-5-ethyl-4-((5-fluoro-2-methoxypyridin-4-yl)oxy)pyrrolidin-2-yl)-7-(2,3-dichlorophenyl)-6-fluoro-4-((R)-1-hydroxyethyl)-1H-pyrrolo[3,2-c]quinolin-8-yl)propanenitrile], for which the Caco-2 result in data set [2] is listed as “+++ (a Caco-2 value of >1)”. The IC50 in data set [3] (setting [7]) and in data set [4] (setting [8]) was no more than 100 nM in each case.

As to `COC[C@@H]1[C@@H](Oc2cc(OC)ncc2F)C[C@H](c2cc3c([C@@H](C)O)nc4c(F)c(-c5cccc(Cl)c5Cl)c(CCC#N)cc4c3n2[C@H]2[C@H]3CN[C@@H]2C3)N1C(=O)C1CC1` [Example 83], the Caco-2 result in data set [2] was “++ (a Caco-2 value of >0.5 but ≤1)”. Moreover, the half-inhibitory concentration (IC50) in data set [3] (setting [7]) and in data set [4] (setting [8]) was no more than 100 nM throughout.
